The record followed here is patent US7553969B1, “Substituted phenethylamine derivatives” (Chugai Seiyaku Kabushiki Kaisha, priority 1999, dated 2009).

Molecules are shown by their SMILES. Where a SMILES comes first, the peptide text is derived from it. [ ]: non-standard residue; d: D form. The star is where a group is joined. ξ: configuration not given here. NMeTyr(3-tBu) = CN[C@@H](Cc1ccc(O)c(C(C)(C)C)c1)C(=O)O; ξNMeTyr(3-tBu) = CNC(Cc1ccc(O)c(C(C)(C)C)c1)C(=O)O; Tyr(3-tBu) = CC(C)(C)c1cc(C[C@H](N)C(=O)O)ccc1O; NMePhe(4-F) = CN[C@@H](Cc1ccc(F)cc1)C(=O)O; Phe(4-F) = N[C@@H](Cc1ccc(F)cc1)C(=O)O; ξPhe(4-CN) = N#Cc1ccc(CC(N)C(=O)O)cc1; NMeGly(cPr) = CN[C@H](C(=O)O)C1CC1; NMeIle(3ξ) = CCC(C)[C@H](NC)C(=O)O; NMeChg = CN[C@H](C(=O)O)C1CCCCC1; NMeF = CN[C@@H](Cc1ccccc1)C(=O)O; NMePhg = CN[C@H](C(=O)O)c1ccccc1; NMeV = CN[C@H](C(=O)O)C(C)C; Morpholide = C1CN(*)CCO1

In assay [1] the test system is specimen of longitudinal muscle in the duodenum extracted from a rabbit (motilin-induced contraction). Nature of the assay: Action on the motilin-induced contraction of a specimen of longitudinal muscle in the duodenum extracted from a rabbit. Particulars: organ bath, Krebs solution 28° C.; for Kb: Oryctolagus cuniculus, read-out: Contraction suppressing test, pA2 (converted). Here is the method:
Action on the Contraction of a Specimen of Longitudinal Muscle in the Duodenum Extracted from a Rabbit
The action on the motilin-induced contraction of a specimen of longitudinal muscle in the duodenum extracted from a rabbit was investigated by the following method. A duodenum specimen (5×15 mm) extracted from a slaughtered rabbit was suspended in an organ bath (10 ml) such that the longitudinal muscle would run vertically; the bath was filled with a Krebs solution kept at 28° C. A mixed gas (95% O2 and 5% CO2) was continuously bubbled into the Krebs solution and the contraction of the duodenum specimen was recorded isotonically (with a 1-g load) via an isotonic transducer (ME-3407, ME Commercial, Tokyo, Japan). The degree of contraction was expressed in relative values, with the contraction by acetylcholine at a dose of 10^−4 M being taken as 100%. The activity of the compound was calculated as pA2 value indicating its effect on the dose-dependent muscle contraction by the motilin put into the organ bath.

For assay [2], the target named is T1, motilin receptor (Oryctolagus cuniculus, UniProt G1T803).
T1 construct: homogenized in 50 mM Tris buffer to prepare a protein sample; from tissue; host or cells: rabbit duodenum homogenate (mucous membrane separated)
T1 sequence (G1T803 1-400): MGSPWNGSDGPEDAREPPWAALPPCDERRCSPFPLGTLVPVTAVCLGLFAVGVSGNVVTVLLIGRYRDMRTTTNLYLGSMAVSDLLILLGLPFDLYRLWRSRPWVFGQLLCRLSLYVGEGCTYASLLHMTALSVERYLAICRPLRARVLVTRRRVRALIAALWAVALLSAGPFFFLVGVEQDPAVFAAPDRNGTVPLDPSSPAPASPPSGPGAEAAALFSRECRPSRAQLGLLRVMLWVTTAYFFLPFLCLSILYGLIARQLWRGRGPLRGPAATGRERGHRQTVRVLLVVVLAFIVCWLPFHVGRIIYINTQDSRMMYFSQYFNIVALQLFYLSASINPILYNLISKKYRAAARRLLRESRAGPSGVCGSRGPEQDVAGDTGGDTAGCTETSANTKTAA
Nature of the assay: Motilin receptor binding test (125I motilin, rabbit duodenum protein sample). Particulars: 125I motilin 25 pM, concentration reducing specific binding by 50%. The protocol: Motilin receptor binding test
A motilin receptor binding test was conducted in the following manner [Vantrappen et al., Regul. Peptides, 15, 143 (1986)]. The duodenum was extracted from a slaughtered rabbit, had the mucous membrane separated and homogenized in 50 mM Tris buffer to prepare a protein sample. The protein sample was incubated together with ^125I motilin 25 pM and thereafter the radioactivity bound to the protein was measured. Specific binding was defined as the difference between the radioactivity in the case of adding a great excess amount of motilin (10^−7 M) and that in the case of no adding. The activity of the compound was expressed by IC50 (in nM), as the concentration sufficient to reduce the specific binding by 50%.

For orientation: IC50 means the concentration that gives 50% inhibition. A high value points to a need for much substance. As to `CC(C)[C@@H](C(=O)N[C@@H](Cc1ccc(O)c(C(C)(C)C)c1)c1nccs1)N(C)C(=O)[C@@H](N)Cc1ccc(F)cc1` (single isomer, unassigned) [Example 23, 2-((2-amino-3-(4-fluorophenyl)propionyl)-N-methylamino)-3-methylbutyric acid 2-(3-tert-butyl-4-hydroxyphenyl)-1-(thiazol-2-yl)ethylamide], in assay [1], the Kb is 0.501 nM. Moreover, the IC50 in assay [2] is 0.67 nM.

With `CN(C(=O)[C@@H](N)Cc1ccc(F)cc1)[C@H](C(=O)N(C)[C@@H](Cc1ccc(O)c(C(C)(C)C)c1)C(N)=O)c1ccccc1` [Example 166, Phe(4-F)-N-Me-Phg-N-Me-Tyr(3-tBu)-NH2] (H-[Phe(4-F)]-[NMePhg]-[NMeTyr(3-tBu)]-NH2), the Kb in assay [1] was 0.158 nM. This compound also registered an IC50 in assay [2] of 1.8 nM.

Regarding `CCOC(=O)CN1CCN(C(=O)[C@H](Cc2ccc(O)c(C(C)(C)C)c2)N(C)C(=O)[C@H](C(C)C)N(C)C(=O)[C@@H](N)Cc2ccc(F)cc2)CC1` [Example 135, ethyl 2-[4-((2S)-2-{(2S)-2-[(2S)-2-amino-3-(4-fluorophenyl)-N-methylpropanolyamino]-3,N-dimethylbutanoylamino}-3-[3-(tert-butyl)-4-hydroxyphenyl]propanoyl)piperazinyl]acetate], the Kb in assay [1] is 3.16 nM. For the same compound, the IC50 in assay [2] stood at 0.7 nM.

As for `CNC(=O)[C@H](Cc1ccc(O)c(C(C)(C)C)c1)NC(=O)[C@H](C(C)C)N(C)C(=O)[C@@H](N)Cc1ccc(F)cc1` [Example 31, Phe(4-F)-N-Me-Val-Tyr(3-tBu)-NHMe] (H-[Phe(4-F)]-[NMeV]-[Tyr(3-tBu)]-NHMe), in assay [1], the Kb is 0.316 nM. In assay [2], this compound displayed an IC50 of 0.79 nM.

For `CC(C)[C@@H](C(=O)N[C@H](CNS(N)(=O)=O)Cc1ccc(O)c(C(C)(C)C)c1)N(C)C(=O)[C@@H](N)Cc1ccc(F)cc1` [Example 12, 2-(2-(2-amino-3-(4-fluorophenylpropanoyl-N-methylamino)-3-methyl)butyrylamino)-3-(3-tert-butyl-4-hydroxyphenyl)propylsulfamide], the Kb in assay [1] was 0.501 nM. The same compound yielded an IC50 in assay [2] of 0.52 nM.

As to `CN(C(=O)[C@@H](N)Cc1ccc(F)cc1)[C@H](C(=O)N(C)[C@@H](Cc1ccc(O)c(C(C)(C)C)c1)C(N)=O)C1CC1` [Example 165, Phe(4-F)-N-Me-Ala(β-c-Pr)-N-Me-Tyr(3-tBu)-NH2] (H-[Phe(4-F)]-[NMeGly(cPr)]-[NMeTyr(3-tBu)]-NH2), in assay [1], the Kb is 6.31 nM. The compound also registered a concentration for half-maximal inhibition (IC50) in assay [2] of 2.8 nM.

`CCN(C(=O)[C@H](C(C)C)N(C)C(=O)[C@@H](N)Cc1ccc(F)cc1)[C@@H](Cc1ccc(O)c(C(C)(C)C)c1)C(=O)NC` [Example 42, Phe(4-F)-N-Me-Val-N-Et-Tyr(3-tBu)-NHMe]: the Kb in assay [1] is 5.01 nM. The compound also showed a concentration for half-maximal inhibition (IC50) in assay [2] of 1.2 nM.

In the case of `CCNC(=O)[C@H](Cc1ccc(O)c(C(C)(C)C)c1)N(CC)C(=O)[C@H](C(C)C)N(C)C(=O)[C@H](Cc1ccc(F)cc1)NC` [Example 108, N-Me-Phe(4-F)-N-Me-Val-N-Et-Tyr(3-tBu)-NHEt], in assay [1], the Kb was 1 nM. This compound registered an IC50 in assay [2] of 0.43 nM.

Consider `CN(C(=O)[C@@H](N)Cc1ccc(F)cc1)[C@H](C(=O)N(C)[C@@H](Cc1ccc(O)c(C(C)(C)C)c1)C(N)=O)C1CCCCC1` [Example 151, Phe(4-F)-N-Me-Chg-N-Me-Tyr(3-tBu)-NH2] (H-[Phe(4-F)]-[NMeChg]-[NMeTyr(3-tBu)]-NH2), for which the Kb in assay [1] is 6.31 nM. Besides, the IC50 in assay [2] is 0.36 nM.

On to `CCN(C(=O)[C@H](C(C)C)N(C)C(=O)[C@@H](N)Cc1ccc(F)cc1)[C@@H](Cc1ccc(O)c(C(C)(C)C)c1)C(N)=O` [Example 39, Phe(4-F)-N-Me-Val-N-Et-Tyr(3-tBu)-NH2], for which the Kb in assay [1] was 2 nM. Besides, in assay [2], the IC50 came out at 2 nM.

Regarding `CC(C)[C@@H](C(=O)N(C)[C@@H](Cc1ccc(O)c(C(C)(C)C)c1)C(=O)N1CCOCC1)N(C)C(=O)[C@@H](N)Cc1ccc(F)cc1` [Example 133, (2S)-2-[(2S)-2-amino-3-(4-fluorophenyl)-N-methylpropanolyamino]-N-((1S)-1-{[3-(tert-butyl)-4-hydroxyphenyl]methyl}-2-morpholin-4-yl-2-oxoethyl)-3-methyl-N-methylbutanamide] (H-[Phe(4-F)]-[NMeV]-[NMeTyr(3-tBu)]-Morpholide), the Kb in assay [1] was 6.31 nM. This compound displayed an IC50 in assay [2] of 1.1 nM.

Take `CC(C)[C@@H](C(=O)N(C)C(Cc1ccc(O)c(C(C)(C)C)c1)C(N)=O)N(C)C(=O)C(N)Cc1ccc(C#N)cc1` (some centres unmarked) [Example 182, Phe(4-CN)-N-Me-Val-N-Me-Tyr(3-tBu)-NH2] (H-[ξPhe(4-CN)]-[NMeV]-[ξNMeTyr(3-tBu)]-NH2): the Kb in assay [1] was 3.16 nM. In assay [2], this compound registered an IC50 of 2.3 nM.

On to `CCN[C@@H](Cc1ccc(F)cc1)C(=O)N(C)[C@H](C(=O)N(C)[C@@H](Cc1ccc(O)c(C(C)(C)C)c1)C(N)=O)C(C)C` [Example 35, N-Et-Phe(4-F)-N-Me-Val-N-Me-Tyr(3-tBu)-NH2], for which the Kb in assay [1] is 1.58 nM. This compound gave an IC50 in assay [2] of 1.7 nM.

As to `CCN[C@@H](Cc1ccc(F)cc1)C(=O)N(C)[C@H](C(=O)N(CC)[C@@H](Cc1ccc(O)c(C(C)(C)C)c1)C(N)=O)C(C)C` [Example 41, N-Et-Phe(4-F)-N-Me-Val-N-Et-Tyr(3-tBu)-NH2], the Kb in assay [1] was 3.98 nM. In assay [2], the IC50 stood at 3.1 nM.

For `CC(C)C(C(=O)N(C)C(Cc1ccc(O)c(C(C)(C)C)c1)C(=O)NCS(C)(=O)=O)N(C)C(=O)C(N)Cc1ccc(F)cc1` (centres unmarked) [Example 64, Phe(4-F)-N-Me-Val-N-Me-Tyr(3-tBu)-NHCH2SO2CH3], the “Contraction suppressing test, pA2” value in assay [1] came to 9.0. In assay [2], this compound came in with an IC50 of 1 nM.

On to `CN(C(=O)[C@@H](N)Cc1ccc(F)cc1)[C@@H](Cc1ccccc1)C(=O)N(C)[C@@H](Cc1ccc(O)c(C(C)(C)C)c1)C(N)=O` [Example 155, Phe(4-F)-N-Me-Phe-N-Me-Tyr(3-tBu)-NH2] (H-[Phe(4-F)]-[NMeF]-[NMeTyr(3-tBu)]-NH2), for which, in assay [1], the Kb is 7.94 nM. The compound also yielded an IC50 in assay [2] of 2.5 nM.

`CC(C)[C@@H](C(=O)N[C@H](CO)Cc1ccc(O)c(C(C)(C)C)c1)N(C)C(=O)[C@@H](N)Cc1ccc(F)cc1` [Example 17, 2-(2-((2-amino-3-(4-fluorophenyl)propionyl)-N-methylamino)-3-methyl-butyrylamino)-3-(3-tBu-4-hydroxyphenyl)propanol]: in assay [1], the Kb is 0.794 nM. In addition, the concentration for half-maximal inhibition (IC50) in assay [2] is 0.7 nM.

On to `CCC(C)[C@@H](C(=O)N(C)[C@@H](Cc1ccc(O)c(C(C)(C)C)c1)C(N)=O)N(C)C(=O)[C@@H](N)Cc1ccc(F)cc1` (some centres unmarked) [Example 142, Phe(4-F)-N-Me-Ile-N-Me-Tyr(3-tBu)-NH2] (H-[Phe(4-F)]-[NMeIle(3ξ)]-[NMeTyr(3-tBu)]-NH2), for which the Kb in assay [1] was 2.51 nM. In assay [2], this compound showed an IC50 of 0.62 nM.

`CCN(C(=O)[C@H](C(C)C)N(C)C(=O)[C@H](Cc1ccc(F)cc1)NC)[C@@H](Cc1ccc(O)c(C(C)(C)C)c1)C(=O)NCO` [Example 128, N-Me-Phe(4-F)-N-Me-Val-N-Et-Tyr(3-tBu)-NHCH2OH]: the Kb in assay [1] is 2 nM. This compound also yielded an IC50 in assay [2] of 1.5 nM.

`CCN[C@@H](Cc1ccc(F)cc1)C(=O)N(C)[C@H](C(=O)N(CC)[C@@H](Cc1ccc(O)c(C(C)(C)C)c1)C(=O)NC)C(C)C` [Example 44, N-Et-Phe(4-F)-N-Me-Val-N-Et-Tyr(3-tBu)-NHMe]: in assay [1], the Kb was 3.16 nM. In assay [2], this compound displayed an IC50 of 3.6 nM.

Take `CN[C@@H](Cc1ccc(F)cc1)C(=O)N(C)[C@H](C(=O)N(C)[C@@H](Cc1ccc(O)c(C(C)(C)C)c1)C(=O)NCO)C(C)C` [Example 125, N-Me-Phe(4-F)-N-Me-Val-N-Me-Tyr(3-tBu)-NHCH2OH]: the Kb in assay [1] was 1 nM. The compound further displayed an IC50 in assay [2] of 1 nM.

For `CC(C)[C@@H](C(=O)N[C@H](CC(N)=O)Cc1ccc(O)c(C(C)(C)C)c1)N(C)C(=O)[C@@H](N)Cc1ccc(F)cc1` [Example 15, 2-((2-amino-3-(4-fluorophenyl)propionyl)-N-methylamino)-3-methylbutyric acid 2-(3-t-butyl-4-hydroxyphenyl)-1-carbamidomethylethylamide], the Kb in assay [1] was 3.16 nM. The IC50 in assay [2] amounted to 0.82 nM.

Regarding `CCNC(=O)[C@H](Cc1ccc(O)c(C(C)(C)C)c1)N(C)C(=O)[C@H](C(C)C)N(C)C(=O)[C@H](Cc1ccc(F)cc1)NC` [Example 105, N-Me-Phe(4-F)-N-Me-Val-N-Me-Tyr(3-tBu)-NHEt] (H-[NMePhe(4-F)]-[NMeV]-[NMeTyr(3-tBu)]-NHEt), in assay [1], the Kb is 0.158 nM. In addition, in assay [2], the IC50 is 0.31 nM.

As to `CCNC(=O)[C@H](Cc1ccc(O)c(C(C)(C)C)c1)N(CC)C(=O)[C@H](C(C)C)N(C)C(=O)[C@H](Cc1ccc(F)cc1)NCC` [Example 109, N-Et-Phe(4-F)-N-Me-Val-N-Et-Tyr(3-tBu)-NHEt], in assay [1], the Kb is 2 nM. Also, the concentration for half-maximal inhibition (IC50) in assay [2] stood at 0.17 nM.

`CCN[C@@H](Cc1ccc(F)cc1)C(=O)N(C)[C@H](C(=O)N(C)[C@@H](Cc1ccc(O)c(C(C)(C)C)c1)C(=O)NCO)C(C)C` [Example 126, N-Et-Phe(4-F)-N-Me-Val-N-Me-Tyr(3-tBu)-NHCH2OH]: in assay [1], the Kb was 0.631 nM. This compound registered an IC50 in assay [2] of 1.9 nM.
